Here are results for three molecules from publication PMC10824666 (Nature Cancer, 2023).

What all share (assay): biochemical
What all share (parameters): Eurofins DiscoverX kinase panel, competitive binding assay at 1 uM, percent of DMSO control
Common to all, as to details: competitive binding, percent of DMSO control

One test concerns the target T1, TGFBR1 (Homo sapiens, UniProt P36897).
T1 sequence (P36897 1-503): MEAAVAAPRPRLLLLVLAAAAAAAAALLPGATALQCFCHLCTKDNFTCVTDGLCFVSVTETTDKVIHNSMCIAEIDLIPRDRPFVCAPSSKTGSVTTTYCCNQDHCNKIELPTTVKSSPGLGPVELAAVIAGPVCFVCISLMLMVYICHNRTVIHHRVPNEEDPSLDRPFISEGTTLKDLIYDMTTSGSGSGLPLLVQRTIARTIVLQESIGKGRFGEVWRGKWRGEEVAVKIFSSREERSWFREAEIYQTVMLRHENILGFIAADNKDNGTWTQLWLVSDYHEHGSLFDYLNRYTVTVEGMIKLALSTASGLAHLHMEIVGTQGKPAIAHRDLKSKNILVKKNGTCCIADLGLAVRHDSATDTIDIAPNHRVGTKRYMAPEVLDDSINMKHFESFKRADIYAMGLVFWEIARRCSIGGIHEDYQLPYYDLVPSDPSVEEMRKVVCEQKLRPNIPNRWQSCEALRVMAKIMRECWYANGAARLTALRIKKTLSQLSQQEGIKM
In short, it runs like this: (§1)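 Competitive binding assay across a 96-kinase panel with KIF18A compounds at 1 µM; values given as percentage of control (POC), single experiment.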

The next test has as its target INSR (Homo sapiens, UniProt P06213). In outline: as §1
Another test concerns the target T2, Abl_unphos (Homo sapiens, UniProt P00519).
T2 construct: gene ABL1; non-phosphorylated
In short, it runs like this: as §1

The next test addresses FGFR1 (Homo sapiens, UniProt P11362). In outline:
as §1

Setting [1] is: read-out: Kinome Profiling performed by Eurofins DiscoverX / AM-0277, 1.0 µM / POC.
Setting [2] is: read-out: Kinome Profiling performed by Eurofins DiscoverX / AM-1882, 1.0 µM / POC.
Where [3] appears, read: read-out: Kinome Profiling performed by Eurofins DiscoverX / AM-5308, 1.0 µM / POC.

Where two headings read alike, the source gives them in different places.

Chain of FGFR1 (P11362 whole entry): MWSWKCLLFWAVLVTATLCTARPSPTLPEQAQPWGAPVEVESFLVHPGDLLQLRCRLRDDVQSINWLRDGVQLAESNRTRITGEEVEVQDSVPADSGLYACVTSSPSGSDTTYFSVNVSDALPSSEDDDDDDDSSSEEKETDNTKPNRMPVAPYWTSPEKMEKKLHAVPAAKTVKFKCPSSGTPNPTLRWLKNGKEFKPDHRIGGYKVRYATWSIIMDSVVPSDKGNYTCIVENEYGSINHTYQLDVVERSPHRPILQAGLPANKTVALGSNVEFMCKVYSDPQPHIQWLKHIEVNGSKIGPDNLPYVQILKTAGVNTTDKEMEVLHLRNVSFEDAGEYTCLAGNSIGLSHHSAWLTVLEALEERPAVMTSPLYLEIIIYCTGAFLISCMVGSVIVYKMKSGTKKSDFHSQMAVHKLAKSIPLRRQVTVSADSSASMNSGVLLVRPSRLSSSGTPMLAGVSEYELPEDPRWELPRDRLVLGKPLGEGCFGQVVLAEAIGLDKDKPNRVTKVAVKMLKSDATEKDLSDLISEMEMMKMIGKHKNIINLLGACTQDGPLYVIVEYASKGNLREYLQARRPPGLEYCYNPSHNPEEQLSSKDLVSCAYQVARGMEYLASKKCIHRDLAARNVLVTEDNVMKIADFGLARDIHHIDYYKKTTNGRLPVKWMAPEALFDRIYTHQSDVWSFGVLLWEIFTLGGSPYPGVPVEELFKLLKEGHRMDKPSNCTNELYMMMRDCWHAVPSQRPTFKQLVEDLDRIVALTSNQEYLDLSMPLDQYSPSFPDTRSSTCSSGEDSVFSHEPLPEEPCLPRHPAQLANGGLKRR
Chain of INSR (P06213 whole entry): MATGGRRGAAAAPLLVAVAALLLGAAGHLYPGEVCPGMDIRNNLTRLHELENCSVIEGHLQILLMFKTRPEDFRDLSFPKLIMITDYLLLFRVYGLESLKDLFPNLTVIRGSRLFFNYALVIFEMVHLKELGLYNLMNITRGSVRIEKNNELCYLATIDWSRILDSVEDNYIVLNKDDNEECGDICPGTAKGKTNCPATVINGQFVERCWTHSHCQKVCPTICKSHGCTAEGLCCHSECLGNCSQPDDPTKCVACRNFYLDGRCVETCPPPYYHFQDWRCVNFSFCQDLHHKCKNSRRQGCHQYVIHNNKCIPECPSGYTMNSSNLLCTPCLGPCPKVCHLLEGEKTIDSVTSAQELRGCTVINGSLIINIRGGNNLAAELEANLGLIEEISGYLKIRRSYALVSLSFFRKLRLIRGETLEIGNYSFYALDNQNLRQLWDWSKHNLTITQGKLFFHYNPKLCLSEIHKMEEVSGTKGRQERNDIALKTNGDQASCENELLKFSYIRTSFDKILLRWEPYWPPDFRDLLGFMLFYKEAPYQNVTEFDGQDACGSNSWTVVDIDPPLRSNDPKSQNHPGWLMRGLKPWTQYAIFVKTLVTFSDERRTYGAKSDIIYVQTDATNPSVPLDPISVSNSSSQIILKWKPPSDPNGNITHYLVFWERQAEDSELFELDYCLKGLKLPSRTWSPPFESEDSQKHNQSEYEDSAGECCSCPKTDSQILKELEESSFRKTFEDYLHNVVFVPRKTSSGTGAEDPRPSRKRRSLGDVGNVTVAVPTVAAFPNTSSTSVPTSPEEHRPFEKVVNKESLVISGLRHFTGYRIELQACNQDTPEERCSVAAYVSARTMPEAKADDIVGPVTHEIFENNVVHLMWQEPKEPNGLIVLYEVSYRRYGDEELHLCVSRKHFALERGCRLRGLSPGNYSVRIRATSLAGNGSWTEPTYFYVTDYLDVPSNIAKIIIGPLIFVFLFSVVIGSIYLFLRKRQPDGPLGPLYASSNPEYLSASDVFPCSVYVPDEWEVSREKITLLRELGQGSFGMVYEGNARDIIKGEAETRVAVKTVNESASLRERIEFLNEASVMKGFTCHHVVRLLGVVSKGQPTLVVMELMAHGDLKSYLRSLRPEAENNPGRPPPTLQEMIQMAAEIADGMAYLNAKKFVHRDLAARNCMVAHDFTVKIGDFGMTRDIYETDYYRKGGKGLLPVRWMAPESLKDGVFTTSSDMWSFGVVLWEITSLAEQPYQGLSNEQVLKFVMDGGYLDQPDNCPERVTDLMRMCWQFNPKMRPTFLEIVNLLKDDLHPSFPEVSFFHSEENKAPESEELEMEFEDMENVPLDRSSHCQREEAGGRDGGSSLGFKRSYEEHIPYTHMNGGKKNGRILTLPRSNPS
T2 sequence (P00519 whole entry): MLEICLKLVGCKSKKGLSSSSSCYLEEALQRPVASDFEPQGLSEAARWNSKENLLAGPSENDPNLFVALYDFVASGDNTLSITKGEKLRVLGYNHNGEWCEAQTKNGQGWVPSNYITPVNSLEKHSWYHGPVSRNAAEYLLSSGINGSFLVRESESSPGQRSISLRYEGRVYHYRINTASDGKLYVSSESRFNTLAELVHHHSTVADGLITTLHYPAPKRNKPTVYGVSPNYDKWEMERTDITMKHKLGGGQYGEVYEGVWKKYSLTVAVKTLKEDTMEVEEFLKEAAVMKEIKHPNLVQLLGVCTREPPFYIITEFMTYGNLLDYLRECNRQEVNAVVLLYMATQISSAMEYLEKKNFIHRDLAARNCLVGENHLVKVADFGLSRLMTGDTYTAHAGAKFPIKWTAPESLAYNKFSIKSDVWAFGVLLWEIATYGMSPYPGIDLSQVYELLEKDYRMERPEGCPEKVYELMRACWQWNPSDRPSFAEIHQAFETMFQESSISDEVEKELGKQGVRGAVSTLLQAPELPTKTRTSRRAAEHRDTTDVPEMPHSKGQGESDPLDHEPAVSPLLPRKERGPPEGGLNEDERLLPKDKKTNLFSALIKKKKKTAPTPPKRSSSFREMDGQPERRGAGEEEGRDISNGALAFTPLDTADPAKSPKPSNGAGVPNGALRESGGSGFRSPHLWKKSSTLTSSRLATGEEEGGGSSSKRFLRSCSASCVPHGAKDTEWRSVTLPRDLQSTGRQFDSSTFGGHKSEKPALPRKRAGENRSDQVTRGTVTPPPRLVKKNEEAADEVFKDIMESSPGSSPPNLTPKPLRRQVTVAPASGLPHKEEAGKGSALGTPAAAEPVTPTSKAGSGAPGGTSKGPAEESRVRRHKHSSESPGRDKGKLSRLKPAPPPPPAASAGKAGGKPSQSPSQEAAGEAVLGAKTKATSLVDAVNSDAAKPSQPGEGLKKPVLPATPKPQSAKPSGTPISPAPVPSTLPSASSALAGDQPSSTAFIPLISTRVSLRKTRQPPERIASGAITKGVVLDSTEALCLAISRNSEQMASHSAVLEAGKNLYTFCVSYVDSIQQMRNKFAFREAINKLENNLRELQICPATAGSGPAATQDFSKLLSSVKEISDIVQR

Turning to `CC(C)(CO)Nc1ccc(C(=O)Nc2cccc(S(=O)(=O)C3CCCC3)c2)c(N2CCC3(CC2)CC3)n1` [AM-0277], the remaining activity at 1 µM on TGFBR1 (setting [1]) is 73%; on INSR (setting [1]) it was 100%; on Abl_unphos (setting [1]), 100%; at FGFR1 (setting [1]) it was 94%.

Take `CC(C)(C)NS(=O)(=O)c1cccc(NC(=O)c2ccc(S(=O)(=O)NC(C)(C)C)cc2N2CCC3(CC2)CC3)c1` [AM-1882]: the remaining activity at 1 µM on TGFBR1 (setting [2]) amounted to 94%; on INSR (setting [2]), 100%; at Abl_unphos (setting [2]), 58%; at FGFR1 (setting [2]) it was 98%.

As for `C[C@@H]1CN(c2cccc(NC(=O)c3ccc(NS(=O)(=O)CCO)cc3N3CCC4(CC3)CC4)n2)CCO1` [AM-5308], the remaining activity at 1 µM is 100% on TGFBR1 (setting [3]), 100% at INSR (setting [3]), 93% at Abl_unphos (setting [3]) and 94.5% on FGFR1 (setting [3]).
